Consider 10 compounds from patent publication US11053248B2, “[1,2,4]triazolo[1,5-a]pyrimidine compounds as PDE2 inhibitors” (Janssen Pharmaceutica NV, priority 2016, dated 2021).

Where “and” joins values, the source holds several entries; their conditions need not be identical. Equal entries are not always repeated. Where two headings read alike, the source gives them in different places.

In data set [1] the target is T1, hPDE2A (Homo sapiens, UniProt O00408).
T1 construct: made in house; host or cells: Sf9 insect cells (baculovirus)
T1 sequence (O00408 whole entry): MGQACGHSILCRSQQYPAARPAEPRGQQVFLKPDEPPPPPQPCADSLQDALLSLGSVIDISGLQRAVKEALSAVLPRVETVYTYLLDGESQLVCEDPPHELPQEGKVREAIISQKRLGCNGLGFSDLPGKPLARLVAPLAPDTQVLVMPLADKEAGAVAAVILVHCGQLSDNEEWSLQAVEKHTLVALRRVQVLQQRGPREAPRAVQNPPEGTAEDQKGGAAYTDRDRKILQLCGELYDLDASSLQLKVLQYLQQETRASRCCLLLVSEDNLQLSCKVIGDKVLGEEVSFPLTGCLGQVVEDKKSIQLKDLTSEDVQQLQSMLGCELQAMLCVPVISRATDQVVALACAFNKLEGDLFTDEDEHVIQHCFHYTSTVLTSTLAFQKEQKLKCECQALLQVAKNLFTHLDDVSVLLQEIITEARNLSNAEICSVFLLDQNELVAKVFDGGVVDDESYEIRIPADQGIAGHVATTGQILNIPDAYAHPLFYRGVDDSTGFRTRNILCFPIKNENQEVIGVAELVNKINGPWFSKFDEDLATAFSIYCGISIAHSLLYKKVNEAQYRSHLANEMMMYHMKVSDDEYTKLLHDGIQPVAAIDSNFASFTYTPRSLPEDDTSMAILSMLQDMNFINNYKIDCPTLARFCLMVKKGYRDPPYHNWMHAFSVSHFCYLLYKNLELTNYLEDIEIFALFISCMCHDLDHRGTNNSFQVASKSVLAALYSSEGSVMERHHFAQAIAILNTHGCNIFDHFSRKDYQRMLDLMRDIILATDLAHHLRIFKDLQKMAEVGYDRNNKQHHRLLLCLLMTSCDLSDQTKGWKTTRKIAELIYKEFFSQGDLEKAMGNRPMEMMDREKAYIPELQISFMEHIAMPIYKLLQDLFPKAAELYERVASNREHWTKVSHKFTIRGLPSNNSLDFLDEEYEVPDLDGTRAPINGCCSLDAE
Kind of data set: In vitro assay PDE2A (SPA, 3H-cGMP). Type of data set: biochemical. Particulars: for Emax: read-out: hPDE2A Emax. On the procedure:
Human recombinant PDE2A (hPDE2A) was expressed in Sf9 cells using a recombinant rPDE10A baculovirus construct. Cells were harvested after 48 h of infection and the hPDE2A protein was purified by metal chelate chromatography on Ni-sepharose 6FF. Tested compounds were dissolved and diluted in 100% DMSO to a concentration 100 fold of the final concentration in the assay. Compound dilutions (0.4 μl) were added in 384 well plates to 20 μl of incubation buffer (50 mM Tris pH 7.8, 8.3 mM MgCl2, 1.7 mM EGTA). 10 μl of hPDE2A enzyme in incubation buffer was added and the reaction was started by addition of 10 μl substrate to a final concentration of 10 μM cGMP and 0.01 μCi ^3H-cGMP. The reaction was incubated for 45 minutes at room temperature. […] After sedimentation of the beads during 30 minutes the radioactivity was measured in a Perkin Elmer Topcount scintillation counter and results were expressed as cpm. For blanc values the enzyme was omitted from the reaction and replaced by incubation buffer. Control values were obtained by addition of a final concentration of 1% DMSO instead of compound.

The test system of data set [2] is hPDE3B. The experiment in a line: In vitro assay PDE3 (SPA, 3H-cAMP). The class given is biochemical, human. Also on record: hPDE3B Emax: unit not given here. Particulars: for hPDE3B pIC50: 0.4 μM cAMP substrate.
For data set [3], the target named is hPDE10A2 (Homo sapiens, UniProt Q9Y233). Kind of data set: biochemical. Particulars: for IC50: 60 nM cAMP substrate, read-out: hPDE10A2 pIC50 (converted); for Emax: read-out: hPDE10A2 Emax. Here is the method:
Rat recombinant PDE10A (rPDE10A2) was expressed in Sf9 cells using a recombinant rPDE10A baculovirus construct. Cells were harvested after 48 h of infection and the rPDE10A protein was purified by metal chelate chromatography on Ni-sepharose 6FF. Tested compounds were dissolved and diluted in 100% DMSO to a concentration 100 fold of the final concentration in the assay. Human recombinant PDE10A […] was expressed in Sf9 cells using a recombinant hPDE10A baculovirus that was made and amplified in house. Cells were harvested after 72 h of infection and the hPDE10A protein was purified by metal chelate chromatography on Ni-sepharose. Compound dilutions (0.4 μl) were added in 384 well plates to 20 μl of incubation buffer (50 mM Tris pH 7.8, 8.3 mM MgCl2, 1.7 mM EGTA). […] of rPDE10A or hPDE10A enzyme in incubation buffer was added and the reaction was started by addition of 10 μl substrate to a final concentration of 60 nM cAMP and 0.008 μCi ^3H-cAMP. The reaction was incubated for 60 minutes at room temperature. […] After sedimentation of the beads during 30 minutes the radioactivity was measured in a Perkin Elmer Topcount scintillation counter and results were expressed as cpm. For blanc values the enzyme was omitted from the reaction and replaced by incubation buffer. Control values were obtained by addition of a final concentration of 1% DMSO instead of compound.

Data set [4] concerns the target T2, PDE2A (Rattus norvegicus, UniProt Q01062).
T2 construct: from tissue; host or cells: rat brain striatal sections (ex vivo)
T2 sequence (Q01062 1-928): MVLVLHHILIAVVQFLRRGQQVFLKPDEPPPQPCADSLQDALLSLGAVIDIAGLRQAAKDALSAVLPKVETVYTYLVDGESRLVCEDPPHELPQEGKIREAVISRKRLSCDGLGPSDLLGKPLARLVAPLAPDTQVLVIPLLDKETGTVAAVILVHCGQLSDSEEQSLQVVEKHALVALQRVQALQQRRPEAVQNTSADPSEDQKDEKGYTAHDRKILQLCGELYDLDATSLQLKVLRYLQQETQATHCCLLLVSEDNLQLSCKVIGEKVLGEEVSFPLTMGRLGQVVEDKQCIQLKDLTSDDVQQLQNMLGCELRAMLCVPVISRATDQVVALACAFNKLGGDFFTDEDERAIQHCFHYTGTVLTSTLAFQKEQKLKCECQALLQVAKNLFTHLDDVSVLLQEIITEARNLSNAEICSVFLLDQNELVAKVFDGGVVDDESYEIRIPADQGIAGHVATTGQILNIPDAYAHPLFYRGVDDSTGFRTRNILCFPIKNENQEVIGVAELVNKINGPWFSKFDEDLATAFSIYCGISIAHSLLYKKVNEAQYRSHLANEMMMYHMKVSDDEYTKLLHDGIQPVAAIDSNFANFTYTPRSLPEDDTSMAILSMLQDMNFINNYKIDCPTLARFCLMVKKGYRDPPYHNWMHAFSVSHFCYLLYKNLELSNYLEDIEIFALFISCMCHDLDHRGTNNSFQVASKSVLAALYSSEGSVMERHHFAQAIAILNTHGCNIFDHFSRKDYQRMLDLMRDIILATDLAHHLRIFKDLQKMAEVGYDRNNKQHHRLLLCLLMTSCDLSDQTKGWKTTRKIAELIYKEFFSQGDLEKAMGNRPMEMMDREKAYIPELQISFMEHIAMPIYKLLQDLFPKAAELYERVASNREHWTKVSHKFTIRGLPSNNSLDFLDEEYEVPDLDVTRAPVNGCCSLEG
The experiment in a line: PDE2 occupancy by ex-vivo autoradiography with [3H]B-17a. Type of data set: in vivo. On the procedure:
PDE2 Occupancy by Test Compounds Methods
Brains were immediately removed from the skull and rapidly frozen in dry-ice cooled 2-methylbutane (−40° C.).
After thawing, sections were dried under a cold stream of air and incubated for one minute with 30 nM [^3H]B-17a in Tris-HCl (50 mM, pH7.4) containing 0.3% BSA. Brain sections from drug-treated and vehicle-treated animals were incubated in parallel. […] After incubation, the excess of [^3H]B-17a was washed off in ice-cold buffer 2 times 10 minutes, followed by a quick dip in distilled water. The sections were then dried under a stream of cold air.
Brain sections were loaded in a β-imager (Biospace, Paris) for 4 h and radioactivity emerging from delineated brain area was quantified using the Beta vision program (Biospace, Paris). Specific binding was determined as the difference between total binding in the striatum and non-specific binding in the cerebellum. Percentage receptor occupancy of the drug administered to the animal corresponded to 100% minus the percentage receptor labeled in the treated animal. For the determination of ED50-values, the percentage of receptor occupancy was plotted against dose and the sigmoidal log dose-effect curve of best fit was calculated by non-linear regression analysis, using the GraphPad Prism program.

The mark [5] stands for this setting: 10 μM cGMP substrate, read-out: hPDE2A pIC50 (converted).
The mark [6] stands for this setting: rat, route PO (oral), 10 mg/kg, male Wistar rats, striatum, percentage occupancy, read-out: PDE2 occupancy at 10 mg/kg.
[7] abbreviates: rat, po, read-out: PDE2 occupancy at 10 mg/kg, route PO (oral), 10 mg/kg, male Wistar rats, striatum, percentage occupancy.

Chain of hPDE10A2 (Q9Y233 267-1055): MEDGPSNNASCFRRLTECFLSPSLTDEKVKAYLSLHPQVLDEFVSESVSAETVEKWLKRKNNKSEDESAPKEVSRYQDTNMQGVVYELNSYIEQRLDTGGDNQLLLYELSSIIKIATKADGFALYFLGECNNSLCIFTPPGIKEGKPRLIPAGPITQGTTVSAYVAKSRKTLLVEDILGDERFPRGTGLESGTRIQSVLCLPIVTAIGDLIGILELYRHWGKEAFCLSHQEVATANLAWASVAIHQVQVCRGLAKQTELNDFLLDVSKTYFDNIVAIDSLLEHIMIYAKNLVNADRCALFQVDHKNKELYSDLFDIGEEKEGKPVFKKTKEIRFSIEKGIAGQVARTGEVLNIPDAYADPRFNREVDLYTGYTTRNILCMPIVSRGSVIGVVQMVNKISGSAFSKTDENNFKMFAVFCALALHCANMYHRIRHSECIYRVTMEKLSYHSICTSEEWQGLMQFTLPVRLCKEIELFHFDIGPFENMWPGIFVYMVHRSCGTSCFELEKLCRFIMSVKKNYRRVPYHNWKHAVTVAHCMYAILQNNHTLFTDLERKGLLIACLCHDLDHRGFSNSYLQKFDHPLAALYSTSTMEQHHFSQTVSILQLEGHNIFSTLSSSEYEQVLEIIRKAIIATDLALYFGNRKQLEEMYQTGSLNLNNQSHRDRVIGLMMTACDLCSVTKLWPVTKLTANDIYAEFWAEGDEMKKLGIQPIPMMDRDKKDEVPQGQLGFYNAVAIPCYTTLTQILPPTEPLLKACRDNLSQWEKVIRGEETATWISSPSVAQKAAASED

The Emax is the size of the effect at its maximum, as opposed to the concentration needed. Broadly, the melting point is the temperature, or range, at which the solid turns liquid. On to `C[C@@H]1CCN(c2cc(C#N)c3cc(Cl)ccc3n2)C[C@H]1c1cc(C(F)F)nc2ncnn12` [Compound 37], for which the melting point stood at 235.11 °C. Besides, the IC50 in data set [1] (setting [5]) is 129 nM. For the same compound, the Emax in data set [1] worked out at 102%. Moreover, in data set [2], the “hPDE3B Emax” value is given as 70 and the “hPDE3B pIC50” value came out at 5.17. Besides, in data set [3], the IC50 is 363 nM and the Emax came to 96%.
On to `Cc1cc(C(F)(F)F)cc(N2CC[C@@H](C)[C@H](c3cc(C(F)F)nc4ncnn34)C2)n1` [Compound 21], for which the melting point was 124.81 °C. Also, in data set [1], the IC50 was 61.7 nM and the Emax worked out at 101%. In data set [2], the “hPDE3B Emax” value is on record as 93 and the “hPDE3B pIC50” value is recorded as 5.83. In data set [3], the IC50 was 269 nM and the Emax was found to be 95%. The receptor occupancy at 10 mg/kg in data set [4] (setting [6]) was 9%.
On to `C[C@@H]1CCN(c2nccc3cccnc23)C[C@H]1c1cc(C(F)F)nc2ncnn12` [Compound 23], for which the melting point was determined as 111.34 °C. Further, in data set [1], the IC50 is 74.1 nM and the Emax was 95%. For the same compound, in data set [2], the “hPDE3B Emax” value amounted to 54 and the “hPDE3B pIC50” value is recorded as less than 5. In data set [3], the IC50 was 661 nM and the Emax is 93%. Also, in data set [4] (rat, route SC (subcutaneous), 10 mg/kg, male Wistar rats, striatum, percentage occupancy, read-out: PDE2 occupancy at 10 mg/kg), the receptor occupancy at 10 mg/kg came out at 5%.
The compound `C[C@@H]1CCN(c2nccc3occc23)C[C@H]1c1cc(C(F)F)nc2ncnn12` [Compound 13] showed a melting point of 182.59 °C. In data set [1], the IC50 was 15.8 nM and the Emax worked out at 98%. Also, in data set [2], the “hPDE3B Emax” value is 54 and the “hPDE3B pIC50” value was 5.07. Also, in data set [3], the IC50 is 457 nM and the Emax amounted to 91%. Also, the “PDE2 occupancy at 10 mg/kg” value in data set [4] (route SC (subcutaneous), 10 mg/kg, male Wistar rats, striatum, percentage occupancy) was 41 and 67.
With `C[C@H]1CCN(c2nccc3occc23)C[C@@H]1c1cc(C(F)F)nc2ncnn12` [Compound 30], the melting point was determined as 184.03 °C. Further, in data set [1], the IC50 is 8510 nM and the Emax amounted to 9%. In addition, in data set [2], the “hPDE3B Emax” value amounted to 53 and the “hPDE3B pIC50” value amounted to 5.02. Further, in data set [3], the IC50 was more than 10000 nM and the Emax came out at 41%.
In turn, `C[C@H]1CCN(c2nccc3ccc(Br)cc23)C[C@@H]1c1cc(C(F)F)nc2ncnn12` [Compound 29] registered a melting point of 134.49 °C. Besides, in data set [1], the IC50 is 2950 nM and the Emax stood at 8%. In data set [2], the “hPDE3B Emax” value was 99 and the “hPDE3B pIC50” value is recorded as 5.85. Moreover, in data set [3], the IC50 is 2510 nM and the Emax is 84%.
As to `C[C@@H]1CCN(c2nccc3cccc(F)c23)C[C@H]1c1cc(C(F)F)nc2ncnn12` [Compound 20], the melting point was 179.73 °C. Also, in data set [1], the IC50 was 37.2 nM and the maximum response (Emax) is 100%. In data set [2], the “hPDE3B Emax” value is recorded as 81 and the “hPDE3B pIC50” value was 5.41. In data set [3], the IC50 was 269 nM and the Emax came to 97%. For the same compound, in data set [4] (setting [7]), the receptor occupancy at 10 mg/kg came out at 18%.
Usually ED50 stands for the dose that gives a 50% effect, or the effect in half of the subjects. `C[C@@H]1CCN(c2nccc3ccc(Cl)cc23)C[C@H]1c1cc(C(F)F)nc2ncnn12` [Compound 4] registered a melting point of 135.42 °C. The IC50 in data set [1] (setting [5]) was 3.39 nM. The maximal effect (Emax) in data set [1] was determined as 100%. In addition, in data set [2], the “hPDE3B Emax” value amounted to 82 and the “hPDE3B pIC50” value is 5.39. In data set [3], the IC50 was 347 nM and the Emax came out at 101%. Moreover, the receptor occupancy at 10 mg/kg in data set [4] (setting [7]) was determined as 93%. Moreover, the ED50 in data set [4] (rat, po, read-out: PDE occupancy ED50, route PO (oral), male Wistar rats, dose producing 50% occupancy) came out at 8.1 mg/kg.
On to `Cc1ccc(C#N)c(N2CC[C@@H](C)[C@H](c3cc(C(F)F)nc4ncnn34)C2)n1` [Compound 17], for which, in data set [1], the IC50 was 19.5 nM and the Emax was found to be 100%. Further, in data set [2], the “hPDE3B Emax” value is reported as 66 and the “hPDE3B pIC50” value turned out to be 5.15. Also, in data set [3], the IC50 was 102 nM and the Emax stood at 97%. Also, in data set [4] (setting [6]), the receptor occupancy at 10 mg/kg was -18%.
Take `C[C@@H]1CCN(c2nccc3ccc(O)cc23)C[C@H]1c1cc(C(F)F)nc2ncnn12` [Compound 18]: the IC50 in data set [1] (setting [5]) is 25.1 nM. Besides, the Emax in data set [1] amounted to 101%. In data set [2], the “hPDE3B Emax” value amounted to 65 and the “hPDE3B pIC50” value was 5.14. For the same compound, in data set [3], the IC50 is 331 nM and the Emax was determined as 97%. The receptor occupancy at 10 mg/kg in data set [4] (rat, sc, read-out: PDE2 occupancy at 10 mg/kg, route SC (subcutaneous), 10 mg/kg, male Wistar rats, striatum, percentage occupancy) is -6%.
